According to patent publication US20210386752A1, “Uses of Electron Transport Chain Complex I or Complex II Inhibitors in Treating Cancer, Combination Therapies, and Diagnostic Methods Related Thereto” (Emory University, priority 2020, published 2021):

Legend:
[1] = molecular target: T1, citrate synthase (Homo sapiens, UniProt O75390); test: Citrate synthase (CS) activity assay; type: biochemical; conditions: TTFA-treated KMS11 cells
T1 construct: Citrate synthase activity assay was measured in 0.3×10^6 cells harvested per sample and washed with PBS; endogenous in cells; host or cells: KMS11 multiple myeloma cells
T1 sequence (O75390 28-466): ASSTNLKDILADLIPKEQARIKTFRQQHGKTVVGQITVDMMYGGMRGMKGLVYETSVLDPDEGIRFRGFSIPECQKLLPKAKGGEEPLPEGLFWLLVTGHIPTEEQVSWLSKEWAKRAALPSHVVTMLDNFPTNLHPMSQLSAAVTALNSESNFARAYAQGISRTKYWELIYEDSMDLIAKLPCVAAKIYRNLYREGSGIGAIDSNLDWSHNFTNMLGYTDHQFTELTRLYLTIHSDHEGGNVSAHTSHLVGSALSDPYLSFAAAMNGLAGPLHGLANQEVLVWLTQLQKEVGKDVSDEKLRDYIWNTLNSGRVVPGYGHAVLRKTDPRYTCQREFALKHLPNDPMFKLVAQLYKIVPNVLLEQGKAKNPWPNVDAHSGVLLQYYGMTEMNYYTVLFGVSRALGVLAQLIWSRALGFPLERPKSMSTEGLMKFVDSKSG
Experimental: Citrate synthase activity assay was measured in 0.3×10^6 cells harvested per sample and washed with PBS. Cells were resuspended in 10 mM Tris (pH 8.5) and 0.1% Triton X-100 assay buffer, containing 300 μM acetyl CoA and 100 μM 5,5′-dithiobis(2-nitrobenzoic acid) (DTNB=molar extinction coefficient 13.6 mM^−1 cm^−1). Reaction was started by the addition of 0.5 mM oxaloacetic acid and change in absorbance recorded at 412 nm wavelength every min for 10 min. SQR, SDH and CS activity measurements were performed with 100 μL sample containing 0.3×10^6 permeabilized cells.

[2] = molecular target: T2, succinate dehydrogenase (SDH) (Homo sapiens, UniProt P31040); test: SDH activity assay in permeabilized cells; type: biochemical; conditions: TTFA-treated KMS11 cells
T2 construct: endogenous in cells; host or cells: KMS11 multiple myeloma cells, permeabilized
Source text: Given reduced oxygen consumption rates (OCR) in sensitive cells, the activities of mitochondrial Complex I and II were examined. Mitochondrial Complex I and II receive electrons from the electron donors NADH or FADH2 respectively, that are transferred to the terminal electron acceptor (O2) via a series of redox reactions. Complex I or NADH:Coenzyme Q:oxidoreductase is the largest multimeric respiratory complex of ETC comprised of over 40 subunits with its catalytic subunit containing the NADH binding site. Electrons from NADH are transferred to FMN and then to FeS clusters and finally to ubiquinone where ubiquinone is reduced to ubiquinol. Complex II is the only enzyme that has a direct role both in the TCA cycle and ETC. […] Complex I activity was measured using an assay that relies on immunocapture of Complex I from freshly prepared cellular protein extracts. The NADH dehydrogenase activity of immunocaptured Complex I was determined by the oxidation of NADH and simultaneous reduction of the provided dye resulting in increase in absorbance. SDH and SQR activities were measured in live permeabilized cells, containing intact mitochondria pretreated with inhibitors of Complex I (rotenone), Complex III (antimycin) and Complex IV (sodium azide), allowing for selective measurement of SQR or SDH activity. […]

[3] = tested on: CD38+ CD45− gated MM cells from myeloma patient bone marrow aspirates; test: Ex vivo venetoclax sensitivity of myeloma patient samples, Annexin V staining; type: cell-based, human
Experimental: CD38-PE and CD45-APC-Cy7 were used to gate myeloma cells. n=50 biological independent samples.
Bone marrow aspirate samples from 50 MM patients were treated with three doses of venetoclax (0.01, 0.1 and 0.5 μM) or TTFA (100 μM), or the combination for 24 h and cell death was assessed by AnnexinV staining. […] A venetoclax ICso <0.1 μM is characterized as a sensitive sample.
Bone marrow aspirates or peripheral blood samples from consenting myeloma patients were diluted to 25 mL with PBS and over laid on lymphocyte separation media. Following centrifugation, the collected buffy coat was washed with PBS and resuspended in culture medium. Cells subject to various treatments were stained with anti-CD38-phyocerythrin and anti-CD45-allophycocyanin-Cy7 to identify MM cells. CD138+ cells were purified using MACS CD138+ human microbeads. IC50S of venetoclax alone or in combination with TTFA/IACS-010759 in myeloma samples were calculated using nonlinear regression (curve-fit) analysis under agonist vs. normalized response with variable slope.

T2 sequence (P31040 43-664): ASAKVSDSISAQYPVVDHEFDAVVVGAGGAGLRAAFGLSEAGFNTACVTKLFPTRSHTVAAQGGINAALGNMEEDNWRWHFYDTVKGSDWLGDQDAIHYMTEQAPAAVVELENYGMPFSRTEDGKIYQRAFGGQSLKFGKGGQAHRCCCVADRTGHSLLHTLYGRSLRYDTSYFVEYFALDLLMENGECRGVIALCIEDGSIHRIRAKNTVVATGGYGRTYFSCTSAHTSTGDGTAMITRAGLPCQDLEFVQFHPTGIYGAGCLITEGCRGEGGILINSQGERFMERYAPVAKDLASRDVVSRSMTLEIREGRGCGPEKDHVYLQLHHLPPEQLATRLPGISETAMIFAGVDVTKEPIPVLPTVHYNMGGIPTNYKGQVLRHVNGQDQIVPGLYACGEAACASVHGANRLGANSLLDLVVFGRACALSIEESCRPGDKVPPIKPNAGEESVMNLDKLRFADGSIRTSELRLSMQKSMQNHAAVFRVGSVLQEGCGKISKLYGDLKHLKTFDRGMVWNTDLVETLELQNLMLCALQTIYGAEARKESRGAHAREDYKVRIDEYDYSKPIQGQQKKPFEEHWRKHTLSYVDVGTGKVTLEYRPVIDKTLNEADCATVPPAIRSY
T2 sequence (P21912 29-280 partner): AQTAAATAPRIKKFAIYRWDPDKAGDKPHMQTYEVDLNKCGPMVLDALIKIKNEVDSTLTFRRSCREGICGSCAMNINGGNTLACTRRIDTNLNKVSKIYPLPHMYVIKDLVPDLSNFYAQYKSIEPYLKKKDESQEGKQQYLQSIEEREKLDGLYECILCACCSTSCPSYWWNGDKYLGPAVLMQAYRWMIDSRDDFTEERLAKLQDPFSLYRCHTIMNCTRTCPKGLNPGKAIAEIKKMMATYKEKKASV
T2 sequence (Q99643 30-169 partner): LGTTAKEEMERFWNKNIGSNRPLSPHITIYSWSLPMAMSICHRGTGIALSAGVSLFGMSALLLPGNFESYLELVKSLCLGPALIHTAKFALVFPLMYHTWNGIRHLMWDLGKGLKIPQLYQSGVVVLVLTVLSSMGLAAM
T2 sequence (O14521 57-159 partner): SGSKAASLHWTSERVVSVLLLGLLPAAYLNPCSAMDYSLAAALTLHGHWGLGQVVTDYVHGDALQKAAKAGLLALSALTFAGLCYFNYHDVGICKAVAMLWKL

O=C(CC(=O)C(F)(F)F)c1cccs1 [TTFA, 4,4,4-trifluoro-1-(2-thienyl)-1,3-butanedione]
CS activity [1]: remained unaffected | SDH activity [2]: remained unaffected | cell death with combination ([3]; 100 μM TTFA plus 0.1 μM venetoclax, 24 h, 50 patient samples): significantly more cell death | samples sensitized (venetoclax IC50 <0.1 μM) ([3]; 100 μM TTFA, 15 of 50 samples): 30% | samples with more than a 50% decrease in venetoclax IC50 ([3]; 100 μM TTFA, 31 of 50 samples): 62% | samples with increased venetoclax sensitivity (IC50 Ven+TTFA vs Ven) ([3]; 100 μM TTFA, 46 of 50 samples): 92% | samples with greater than 50% reduction in venetoclax IC50 ([3]; of ten ex vivo resistant samples, TTFA treatment): seven samples | reduction in venetoclax IC50 ([3]; t(11;14) patient relapsed on venetoclax, TTFA treatment): more than tenfold reduction | increased sensitivity to venetoclax ([3]; ten ex vivo resistant samples with high SQR activity, TTFA treatment): all ten resistant samples showed increased sensitivity
